# Laboratory results reported in the supplement of paper PMC10307832.
# What was measured:
# Experiment in all cases: relative viability (nuclei count vs DMSO), 5 days (fraction); higher = more cells survive
# [1] = test system: NCI-H2023
# Summary of the method: (§1)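 Relative viability was taken as the ratio of nuclei in treated wells to nuclei in vehicle wells. Lung cancer cell lines in 1536-well plates received compounds by pin tool one day after seeding, either one drug alone or a fixed anchor-drug dose plus five library-drug doses (not always all listed) in √10 steps. Nuclei were counted on 4× images after 5 days of treatment, and values are medians of duplicate plates.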
# [2] = test system: NCI-H2009
# Summary of the method: as §1
# [3] = test system: NCI-H23
# Summary of the method: as §1
# [4] = test system: SK-MES-1
# Summary of the method: as §1
# [5] = test system: HOP-62
# Summary of the method: as §1
# [6] = test system: LOU-NH91
# Summary of the method: as §1
# [7] = test system: NCI-H2085
# Summary of the method: as §1
# [8] = test system: NCI-H322M
# Summary of the method: as §1
# [9] = test system: ABC-1
# Summary of the method: as §1
# [10] = test system: UMC-11
# Summary of the method: as §1
# [11] = test system: HCC-78
# Summary of the method: as §1
# [12] = test system: NCI-H1792
# Summary of the method: as §1
# [13] = test system: ChaGo-K-1
# Summary of the method: as §1
# [14] = test system: NCI-H1355
# Summary of the method: as §1
# [15] = test system: NCI-H1437
# Summary of the method: as §1
# [16] = test system: NCI-H1648
# Summary of the method: as §1
# [17] = test system: NCI-H727
# Summary of the method: as §1
# [18] = test system: NCI-H2342
# Summary of the method: as §1
# [19] = test system: NCI-H2170
# Summary of the method: as §1
# [20] = test system: NCI-H1755
# Summary of the method: as §1
# [21] = test system: LCLC-97TM1
# Summary of the method: as §1
# [22] = test system: RERF-LC-KJ
# Summary of the method: as §1
# [23] = test system: NCI-H650
# Summary of the method: as §1
# [24] = test system: NCI-H2405
# Summary of the method: as §1
structure (smiles),measurement,setting,value
CCCCCCCCCCCC1=C(O)C(=O)C=C(O)C1=O [Embelin] + CC(=O)c1c(C)c2cnc(Nc3ccc(N4CCNCC4)cn3)nc2n(C2CCCC2)c1=O [Palbociclib] (partner 0.5 µM),relative viability,[1]; first compound 0.08 µM,0.379
same,relative viability,[1]; first compound 0.8 µM,0.345
same,relative viability,[1]; first compound 2.53 µM,0.455
same,relative viability,[1]; first compound 8 µM,0.351
same,relative viability,[2]; first compound 0.08 µM,0.223
same,relative viability,[2]; first compound 0.8 µM,0.277
same,relative viability,[2]; first compound 2.53 µM,0.208
same,relative viability,[2]; first compound 8 µM,0.186
same,relative viability,[3]; first compound 0.08 µM,0.516
same,relative viability,[3]; first compound 0.8 µM,0.543
same,relative viability,[3]; first compound 2.53 µM,0.533
same,relative viability,[3]; first compound 8 µM,0.594
same,relative viability,[4]; first compound 0.08 µM,0.366
same,relative viability,[4]; first compound 0.8 µM,0.374
same,relative viability,[4]; first compound 2.53 µM,0.321
same,relative viability,[4]; first compound 8 µM,0.297
same,relative viability,[5]; first compound 0.08 µM,0.433
same,relative viability,[5]; first compound 0.8 µM,0.489
same,relative viability,[5]; first compound 2.53 µM,0.451
same,relative viability,[5]; first compound 8 µM,0.392
same,relative viability,[6]; first compound 0.08 µM,0.551
same,relative viability,[6]; first compound 0.8 µM,0.556
same,relative viability,[6]; first compound 2.53 µM,0.542
same,relative viability,[6]; first compound 8 µM,0.52
same,relative viability,[7]; first compound 0.08 µM,0.441
same,relative viability,[7]; first compound 0.8 µM,0.464
same,relative viability,[7]; first compound 2.53 µM,0.502
same,relative viability,[7]; first compound 8 µM,0.469
same,relative viability,[8]; first compound 0.08 µM,0.456
same,relative viability,[8]; first compound 0.8 µM,0.528
same,relative viability,[8]; first compound 2.53 µM,0.493
same,relative viability,[8]; first compound 8 µM,0.512
same,relative viability,[9]; first compound 0.08 µM,0.752
same,relative viability,[9]; first compound 0.8 µM,0.664
same,relative viability,[9]; first compound 2.53 µM,0.733
same,relative viability,[9]; first compound 8 µM,0.72
same,relative viability,[10]; first compound 0.08 µM,0.337
same,relative viability,[10]; first compound 0.8 µM,0.36
same,relative viability,[10]; first compound 2.53 µM,0.323
same,relative viability,[10]; first compound 8 µM,0.37
same,relative viability,[11]; first compound 0.08 µM,0.514
same,relative viability,[11]; first compound 0.8 µM,0.446
same,relative viability,[11]; first compound 2.53 µM,0.558
same,relative viability,[11]; first compound 8 µM,0.48
same,relative viability,[12]; first compound 0.08 µM,0.625
same,relative viability,[12]; first compound 0.8 µM,0.719
same,relative viability,[12]; first compound 2.53 µM,0.723
same,relative viability,[12]; first compound 8 µM,0.766
same,relative viability,[13]; first compound 0.08 µM,0.911
same,relative viability,[13]; first compound 0.8 µM,1.01
same,relative viability,[13]; first compound 2.53 µM,1.01
same,relative viability,[13]; first compound 8 µM,0.981
same,relative viability,[14]; first compound 0.08 µM,0.411
same,relative viability,[14]; first compound 0.8 µM,0.416
same,relative viability,[14]; first compound 2.53 µM,0.398
same,relative viability,[14]; first compound 8 µM,0.366
same,relative viability,[15]; first compound 0.08 µM,0.313
same,relative viability,[15]; first compound 0.8 µM,0.3
same,relative viability,[15]; first compound 2.53 µM,0.391
same,relative viability,[15]; first compound 8 µM,0.335
same,relative viability,[16]; first compound 0.08 µM,0.205
same,relative viability,[16]; first compound 0.8 µM,0.23
same,relative viability,[16]; first compound 2.53 µM,0.241
same,relative viability,[16]; first compound 8 µM,0.297
same,relative viability,[17]; first compound 0.08 µM,0.657
same,relative viability,[17]; first compound 0.8 µM,0.701
same,relative viability,[17]; first compound 2.53 µM,0.693
same,relative viability,[17]; first compound 8 µM,0.661
same,relative viability,[18]; first compound 0.08 µM,0.54
same,relative viability,[18]; first compound 0.8 µM,0.514
same,relative viability,[18]; first compound 2.53 µM,0.542
same,relative viability,[18]; first compound 8 µM,0.439
same,relative viability,[19]; first compound 0.08 µM,0.407
same,relative viability,[19]; first compound 0.8 µM,0.418
same,relative viability,[19]; first compound 2.53 µM,0.516
same,relative viability,[19]; first compound 8 µM,0.382
same,relative viability,[20]; first compound 0.08 µM,0.471
same,relative viability,[20]; first compound 0.8 µM,0.483
same,relative viability,[20]; first compound 2.53 µM,0.376
same,relative viability,[20]; first compound 8 µM,0.427
same,relative viability,[21]; first compound 0.08 µM,0.184
same,relative viability,[21]; first compound 0.8 µM,0.215
same,relative viability,[21]; first compound 2.53 µM,0.262
same,relative viability,[21]; first compound 8 µM,0.242
same,relative viability,[22]; first compound 0.08 µM,1.15
same,relative viability,[22]; first compound 0.8 µM,1.15
same,relative viability,[22]; first compound 2.53 µM,1.24
same,relative viability,[22]; first compound 8 µM,0.979
same,relative viability,[23]; first compound 0.08 µM,0.272
same,relative viability,[23]; first compound 0.8 µM,0.407
same,relative viability,[23]; first compound 2.53 µM,0.34
same,relative viability,[23]; first compound 8 µM,0.313
same,relative viability,[24]; first compound 0.08 µM,0.543
same,relative viability,[24]; first compound 0.8 µM,0.575
same,relative viability,[24]; first compound 2.53 µM,0.511
same,relative viability,[24]; first compound 8 µM,0.535
